Reference: patent US20160257697A1, “THIOPHENE-SUBSTITUTED TETRACYCLIC COMPOUNDS AND METHODS OFUSE THEREOF FOR THE TREATMENT OF VIRAL DISEASES” (priority 2013, published 2016)
Like-named read-outs stand apart in the source and are kept apart here.

What was measured:
Test in all cases: microbe, parasite or virus in culture
Assay type in all cases: cell-based, Hepatitis C virus (HCV)
HCV replicon 1A = conditions: Replicon Assay A
Outline: (§1)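 Cells seeded 2000/well + compound; 0.5% DMSO, 5% FBS; harvest day 3, lyse. Multiplex TaqMan RT-PCR for replicon (Neo probe) and cyclophilin RNA; amounts from Ct vs log(ng) linear regression of replicon total RNA standards.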

HCV replicon 1AY93H = conditions: Replicon Assay A
Outline: as §1

HCV replicon 2B = conditions: Replicon Assay A
Outline: as §1

HCV replicon 1AQ30D = conditions: Replicon Assay B
HCV replicon 1B = conditions: Replicon Assay B
[1] = read-out: 1A Y93H IC50, replicon 1AY93H
[2] = Hepatitis C virus, read-out: 1A Q30D IC50 (nM), replicon 1AQ30D
[3] = read-out: 1A Y93H IC50, HCV replicon 1A Y93H
[4] = read-out: 2B IC50, HCV replicon 2B
[5] = Hepatitis C virus, read-out: 1A Q30D IC50, HCV replicon 1A Q30D
[6] = Hepatitis C virus, HCV replicon 1B
[7] = Hepatitis C virus, HCV replicon 1A
[8] = Hepatitis C virus, read-out: 1A Y93H IC50 (nM), replicon 1AY93H
[9] = Hepatitis C virus, read-out: 2B IC50 (nM), replicon 2B
[10] = read-out: 1A Q30D IC50, replicon 1AQ30D

Row | SMILES | IC50 (HCV replicon 1A; Hepatitis C virus, replicon 1A) [nM] | IC50 (HCV replicon 1AY93H; [1]) [nM] | IC50 (HCV replicon 2B; read-out: 2B IC50, replicon 2B) [nM] | IC50 (HCV replicon 1AQ30D; [2]) [nM] | IC50 (HCV replicon 1B; Hepatitis C virus, replicon 1B) [nM] | IC50 (HCV replicon 1A; replicon 1A) [nM] | other results
1 | COC(=O)N[C@H](C(=O)N1[C@@H]2C[C@@H]2C[C@H]1c1ncc(-c2cc(F)c3c(c2)OC(c2ccc(C4CC4)s2)n2c-3cc3cc(-c4cnc([C@@H]5C[C@H]6C[C@H]6N5C(=O)[C@@H](NC(=O)OC)C(C)C)[nH]4)ccc32)[nH]1)C(C)C (single isomer, unassigned) [Compound 87] | 0.0012 | 0.002 | 0.19 | 0.15 | 0.0013 | – | –
2 | COC(=O)N[C@H](C(=O)N1CCC[C@H]1c1ncc(-c2ccc3c(c2)OC(c2ccc(C4CC4)s2)n2c-3cc3cc(-c4cnc([C@@H]5CCCN5C(=O)[C@@H](NC(=O)OC)C5CCOCC5)[nH]4)ccc32)[nH]1)C(C)C (single isomer, unassigned) [Compound 335] | – | 0.0052 | 0.004 | 0.0639 | 0.0012 | 0.0025 | –
3 | COC(=O)NC(C(=O)N1[C@@H]2C[C@@H]2C[C@H]1c1ncc(-c2ccc3c(c2)cc2n3C(c3ccc(C(F)F)s3)Oc3cc(-c4cnc([C@@H]5CCCN5C(=O)[C@@H](NC(=O)OC)C(C)C)[nH]4)cc(F)c3-2)[nH]1)C1CCOC(C)(C)C1 (single isomer, unassigned) [Compound 415] | – | – | – | – | – | – | IC50 (HCV replicon 1A; HCV replicon 1A): 0.0023 nM; IC50 (HCV replicon 1AY93H; [3]): 0.0042 nM; IC50 (HCV replicon 2B; [4]): 0.0126 nM; IC50 (HCV replicon 1AQ30D; [5]): 0.0424 nM; IC50 (HCV replicon 1B; [6]): 0.0024 nM
4 | COC(=O)NC(C(=O)N1CCC[C@H]1c1ncc(-c2ccc3c(c2)cc2n3C(c3cc4ccccc4s3)Oc3cc(-c4cnc([C@@H]5CCCN5C(=O)[C@@H](NC(=O)OC)C(C)C)[nH]4)cc(F)c3-2)[nH]1)C1C[C@@H](C)O[C@@H](C)C1 (single isomer, unassigned) [Compound 640] | – | – | – | – | – | – | IC50 (HCV replicon 1A; [7]): 0.0019 nM; IC50 (HCV replicon 1AY93H; [3]): 0.0106 nM; IC50 (HCV replicon 2B; [4]): 0.0253 nM; IC50 (HCV replicon 1AQ30D; [5]): 0.271 nM; IC50 (HCV replicon 1B; [6]): 0.0011 nM
5 | CCc1ccc(C2Oc3cc(-c4cnc([C@@H]5CCCN5C(=O)[C@@H](NC(=O)OC)C(C)C)[nH]4)cc(C)c3-c3cc4cc(-c5cnc([C@@H]6CCCN6C(=O)C(NC(=O)OC)C6C[C@@H](C)O[C@@H](C)C6)[nH]5)ccc4n32)s1 (single isomer, unassigned) [Compound 543] | – | – | – | – | – | – | IC50 (HCV replicon 1A; [7]): 0.00543 nM; IC50 (HCV replicon 1AY93H; [3]): 0.0394 nM; IC50 (HCV replicon 2B; [4]): 0.0111 nM; IC50 (HCV replicon 1AQ30D; [5]): 0.311 nM; IC50 (HCV replicon 1B; [6]): 0.00846 nM
6 | COC(=O)NC(C(=O)N1CCCC1c1ncc(-c2cc(F)c3c(c2)OC(c2cc4c(s2)CC(C)(C)C4)n2c-3cc3cc(-c4cnc(C5CCCN5C(=O)C(NC(=O)OC)C(C)C)[nH]4)ccc32)[nH]1)C(C)C (mixture of isomers) [Compound 846] | – | – | – | – | – | – | IC50 (HCV replicon 1A; HCV replicon 1A): 0.0029 nM; IC50 (HCV replicon 1AY93H; HCV replicon 1A Y93H, read-out: 1A Y93H IC50): 0.034 nM; IC50 (HCV replicon 2B; HCV replicon 2B, read-out: 2B IC50): 0.039 nM; IC50 (HCV replicon 1AQ30D; HCV replicon 1A Q30D, read-out: 1A Q30D IC50): 0.302 nM; IC50 (HCV replicon 1B; HCV replicon 1B): 0.0028 nM
7 | COC(=O)NC(C(=O)N1CCC[C@H]1c1ncc(-c2ccc3c(c2)cc2n3C(c3ccc(C4CC4)s3)Oc3cc(-c4cnc([C@@H]5CCCN5C(=O)C(NC(=O)OC)C(C)(C)F)[nH]4)cc(F)c3-2)[nH]1)C1C[C@@H](C)O[C@@H](C)C1 (single isomer, unassigned) [Compound 379] | 0.0022 | – | – | 0.798 | 0.0011 | – | IC50 (HCV replicon 1AY93H; [8]): 0.0803 nM; IC50 (HCV replicon 2B; [9]): 0.178 nM
8 | COC(=O)N[C@H](C(=O)N1CCC[C@H]1c1ncc(-c2cc(F)c3c(c2)OC(c2ccc(C(F)F)s2)n2c-3cc3cc(-c4cnc([C@@H]5CCCN5C(=O)[C@@H](NC(=O)OC)C(C)C)[nH]4)ccc32)[nH]1)C(C)C (single isomer, unassigned) [Compound 46] | 0.0029 | – | – | 17.1 | 0.001 | – | IC50 (HCV replicon 1AY93H; [8]): 2.6 nM; IC50 (HCV replicon 2B; [9]): 1.79 nM
9 | COC(=O)N[C@H](C(=O)N1CCC[C@H]1c1nc(-c2cc(F)c3c(c2)OC(c2ccc(C)s2)n2c-3cc3cc(-c4cnc([C@@H]5CCCN5C(=O)[C@@H](NC(=O)OC)C5CCOCC5)[nH]4)ccc32)c[nH]1)C(C)C (stereo partly drawn) [Compound 58] | 0.0014 | – | – | – | 0.0034 | – | IC50 (HCV replicon 1AY93H; [8]): 0.002 nM; IC50 (HCV replicon 2B; [9]): 0.011 nM; IC50 (HCV replicon 1AQ30D; [10]): 0.041 nM
10 | COC(=O)NC(C(=O)N1CCC[C@@H]1c1ncc(-c2ccc3c(c2)cc2n3C(c3ccc(CC4CC4)s3)Oc3cc(-c4cnc([C@@H]5CCCN5C(=O)[C@@H](NC(=O)OC)C(C)C)[nH]4)cc(F)c3-2)[nH]1)C1C[C@@H](C)O[C@@H](C)C1 (stereo partly drawn) [Compound 376] | 0.0026 | – | – | 0.0424 | 0.0029 | – | IC50 (HCV replicon 1AY93H; [8]): 0.0023 nM; IC50 (HCV replicon 2B; [9]): 0.006 nM
11 | COC(=O)NC(C(=O)N1CCC[C@H]1c1ncc(-c2cc(F)c3c(c2)OC(c2ccc(C)s2)n2c-3cc3cc(-c4cnc([C@@H]5CCCN5C(=O)[C@@H](NC(=O)OC)C5CCOCC5)[nH]4)ccc32)[nH]1)C(C)(C)F (single isomer, unassigned) [Compound 108] | – | 0.25 | 0.29 | – | – | 0.0026 | IC50 (HCV replicon 1AQ30D; [10]): 1.15 nM; IC50 (HCV replicon 1B; replicon 1B): 0.0027 nM
12 | CCCc1ccc(C2Oc3cc(-c4cnc([C@@H]5CCCN5C(=O)[C@@H](NC(=O)OC)C(C)C)[nH]4)cc(F)c3-c3cc4cc(-c5cnc([C@@H]6CCCN6C(=O)[C@@H](NC(=O)OC)C6CCOCC6)[nH]5)ccc4n32)s1 (single isomer, unassigned) [Compound 347] | – | 0.0023 | 0.0028 | – | – | 0.0019 | IC50 (HCV replicon 1AQ30D; [10]): 0.0129 nM; IC50 (HCV replicon 1B; replicon 1B): 0.0026 nM
13 | CCc1ccc(C2Oc3cc(-c4cnc(C5CCCN5C(=O)C(NC(=O)OC)C5C[C@@H](C)O[C@@H](C)C5)[nH]4)ccc3-c3cc4c(F)c(-c5cnc([C@@H]6CCCN6C(=O)[C@@H](NC(=O)OC)C(C)C)[nH]5)ccc4n32)s1 (single isomer, unassigned) [Compound 359] | – | 0.0826 | 0.0519 | 0.848 | 0.0019 | 0.0036 | –
14 | CCc1ccc(C2Oc3cc(-c4cnc([C@@H]5CCCN5C(=O)[C@@H](NC(=O)OC)C(C)C)[nH]4)cc(F)c3-c3cc4cc(-c5cnc([C@@H]6CCCN6C(=O)[C@H](NC(=O)OC)C6CCOC(C)(C)C6)[nH]5)ccc4n32)s1 (stereo partly drawn) [Compound 151] | 0.002 | – | – | 0.022 | 0.0024 | – | IC50 (HCV replicon 1AY93H; [8]): 0.003 nM; IC50 (HCV replicon 2B; [9]): 0.004 nM
15 | CCc1ccc(C2Oc3cc(-c4cnc([C@@H]5CCCN5C(=O)[C@@H](NC(=O)OC)C(C)C)[nH]4)cc(F)c3-c3cc4cc(-c5cnc([C@@H]6CCCN6C(=O)[C@@H](NC(=O)OC)C(C)C)[nH]5)ccc4n32)s1 (stereo partly drawn) [Compound 4] | 0.0022 | – | – | 0.347 | 0.002 | – | IC50 (HCV replicon 1AY93H; [8]): 0.01 nM; IC50 (HCV replicon 2B; [9]): 0.055 nM
16 | COC(=O)NC(C(=O)N1CCC[C@H]1c1ncc(-c2cc(F)c3c(c2)OC(c2ccc(C4CC4)s2)n2c-3cc3cc(-c4cnc([C@@H]5CCCN5C(=O)[C@@H](NC(=O)OC)C(C)C)[nH]4)ccc32)[nH]1)C1C[C@@H](C)O[C@@H](C)C1 (single isomer, unassigned) [Compound 189] | – | 0.26 | 0.48 | – | – | 0.0013 | IC50 (HCV replicon 1AQ30D; [10]): 1.42 nM; IC50 (HCV replicon 1B; replicon 1B): 0.0018 nM
17 | COC(=O)N[C@H](C(=O)N1CCC[C@H]1c1ncc(-c2cc(F)c3c(c2)OC(c2cc4nccnc4s2)n2c-3cc3cc(-c4cnc([C@@H]5CCCN5C(=O)[C@@H](NC(=O)OC)C(C)C)[nH]4)ccc32)[nH]1)C(C)C (single isomer, unassigned) [Compound 48] | – | 0.027 | 0.016 | 0.54 | 0.0017 | 0.0019 | –
18 | CCc1ccc(C2Oc3cc(-c4cnc([C@@H]5CCCN5C(=O)C(NC(=O)OC)C5CCOC(C)(C)C5)[nH]4)cc(F)c3-c3cc4cc(-c5cnc([C@@H]6CCCN6C(=O)[C@@H](NC(=O)OC)C(C)C)[nH]5)ccc4n32)s1 (single isomer, unassigned) [Compound 163] | – | 0.058 | 0.063 | – | – | 0.0184 | IC50 (HCV replicon 1AQ30D; [10]): 0.17 nM; IC50 (HCV replicon 1B; replicon 1B): 0.0313 nM
19 | COC(=O)N[C@H](C(=O)N1CCC[C@H]1c1ncc(-c2ccc3c(c2)OC(c2ccc(C4CC4)s2)n2c-3c(F)c3cc(-c4cnc([C@@H]5CCCN5C(=O)[C@@H](NC(=O)OC)C(C)C)[nH]4)ccc32)[nH]1)C(C)C (single isomer, unassigned) [Compound 604] | – | – | – | – | – | – | IC50 (HCV replicon 1A; [7]): 0.0013 nM; IC50 (HCV replicon 1AY93H; [3]): 0.0318 nM; IC50 (HCV replicon 2B; [4]): 0.0624 nM; IC50 (HCV replicon 1AQ30D; [5]): 0.704 nM; IC50 (HCV replicon 1B; HCV replicon 1B): 0.0011 nM
20 | COC(=O)N[C@H](C(=O)N1CCC[C@H]1c1ncc(-c2cc(C)c3c(c2)OC(c2ccc(C4CC4)s2)n2c-3cc3cc(-c4cnc([C@@H]5CCCN5C(=O)[C@@H](NC(=O)OC)C(C)C)[nH]4)ccc32)[nH]1)C(C)C (single isomer, unassigned) [Compound 753] | – | – | – | – | – | – | IC50 (HCV replicon 1A; HCV replicon 1A): 0.0057 nM; IC50 (HCV replicon 1AY93H; [3]): 0.06 nM; IC50 (HCV replicon 2B; [4]): 0.023 nM; IC50 (HCV replicon 1AQ30D; read-out: 1A Q30D IC50, HCV replicon 1A Q30D): 0.639 nM; IC50 (HCV replicon 1B; HCV replicon 1B): 0.002 nM
21 | COC(=O)N[C@H](C(=O)C1CCC[C@H]1c1ncc(-c2ccc3c(c2)cc2n3C(c3ccc(C(F)(F)F)s3)Oc3cc(-c4cnc([C@@H]5CCCN5C(=O)[C@@H](NC(=O)OC)C(C)C)[nH]4)cc(F)c3-2)[nH]1)C(C)C (single isomer, unassigned) [Compound 89] | 0.001 | 0.033 | 0.063 | 0.33 | 0.0015 | – | –
